`Nc1sc2c(c1-c1nc3ccccc3[nH]1)CCCC2`: the melting point was in the range of 175 to 177 °C. The figure for `CCNC(=O)CN1CCNCC1` is 83 to 85 °C. In the case of `O=C1Nc2c(Br)cc(Cl)cc2C1=O` it was 245 to 247 °C; in that of `CC(=Cc1ccc(F)cc1)C(=O)O`, 150 to 152 °C. In the case of `CC1(c2ccc(Br)s2)NC(=O)NC1=O` (stereo not drawn) it was 184 to 186 °C. `CCC(=O)c1ccc(Oc2ccccc2)cc1` came in with a melting point of 39 to 41 °C. In the case of `O=C(O)c1ccc([N+](=O)[O-])[nH]1` it was 162 to 164 °C. The figure for `COc1ccc(-c2nc(CO)no2)cc1` is 141 to 143 °C; for `O=c1c2cnn(-c3ccccc3)c2nnn1CCl` it is 179 to 181 °C. `CN(C)S(=O)(=O)c1ccc(Br)c(C(=O)O)c1` came in with a melting point of 174 to 176 °C. In the case of `O=C(c1ccc(Cl)cc1)c1ccc2c(c1)OCO2` it was 128 to 130 °C; in that of `Cc1ccc(S(=O)(=O)NC2CC2)cc1C(=O)O`, 252 to 257 °C. With `COC(=O)c1nscc1N`, the melting point was in the range of 54 to 56 °C. The figure for `Fc1ccc(-c2cnc(C3CCNCC3)[nH]2)cc1F` is 187 to 189 °C; for `CCOC(=O)c1c(N)sc(C)c1CC(C)CC` (stereo not drawn) it is 77 to 79 °C. The figure for `COc1ccc(NS(C)(=O)=O)c(N)c1` is 144 to 146 °C.

In turn, `COc1ccccc1CNC(=O)CCl` came in with a melting point of 94 to 96 °C. In the case of `Cc1cccc(-c2nnc(N)[nH]2)n1` it was 206 to 208 °C; in that of `O=C(O)C1CC1c1ccc(OCc2ccccc2)cc1` (stereo not drawn), 147 to 149 °C; in that of `Cc1ccn2c(C(=O)O)cnc2c1`, 159 to 161 °C.

Compound `Clc1cc2nn[nH]c2cc1Cl` showed a melting point of 249 to 251 °C. In turn, `CC1(C(=O)O)CCCCN1C(=O)c1ccccc1` (stereo not drawn) returned a melting point of 187 to 189 °C. In the case of `O=C(CCl)NCC(=O)c1ccccc1Br` it was 103 to 105 °C. With `COC(=O)CNc1ncc(C)cc1[N+](=O)[O-]`, the melting point is 107 to 109 °C.

Compound `O=C(Cc1ccccn1)c1ccc(Cl)cc1` yielded a melting point of 99 to 101 °C.

Turning to `CCOC(=O)c1cnc2c(C)cc(Br)cc2c1Cl`, the melting point lay within 101 to 103 °C. As for `Clc1ccccc1-c1ncn[nH]1`, the melting point lay within 154 to 156 °C. In the case of `O=[N+]([O-])c1ccccc1NCCO` it was 76 to 78 °C; in that of `NNC(=O)c1ccc(COc2ccccc2)cc1`, 148 to 150 °C. The figure for `NNC(=O)CCc1ccccc1O` is 166 to 168 °C; for `Nc1cc(CC2CCCC2)no1` it is 67 to 69 °C; for `N#CCCC(=O)c1cccnc1` it is 71 to 73 °C.

With `Cc1ccccc1-n1ncc(C(=O)O)c1N`, the melting point lay within 159 to 161 °C. In the case of `Cc1cc(C(=O)O)c(C)n1-c1cccc(Br)c1` it was 158 to 160 °C; in that of `O=C(Nc1ccc(S(=O)(=O)Cl)cc1)C(F)(F)F`, 152 to 154 °C; in that of `CCN1C(=O)C(=O)c2cc(Br)ccc21`, 144 to 146 °C. In the case of `CS(=O)(=O)NCCCN` it was 61 to 63 °C. The figure for `Sc1nnnn1-c1ccccc1` is 145 to 147 °C; for `COc1cccc(C(C[N+](=O)[O-])c2c[nH]c3ccccc23)c1` (stereo not drawn) it is 93 to 95 °C; for `O=C(O)C1CC1C(=O)O` (stereo not drawn) it is 177 to 179 °C. Compound `Nc1ncc(Cc2ccc(Cl)c(C(F)(F)F)c2)s1` had a melting point of 70 to 72 °C. In the case of `Cc1nccn1-c1ccc(CN)cn1` it was 45 to 47 °C; in that of `CCc1c(C)nc2ccccc2c1O`, 279 to 281 °C. In the case of `O=C(O)c1cc(S(=O)(=O)Cl)cc(Cl)c1F` it was 169 to 171 °C; in that of `Nc1nc(-c2ccc(Cl)s2)cs1`, 98 to 100 °C; in that of `Fc1cccc2c1CN=C1CCCN12`, 71 to 73 °C. The figure for `Cn1c(C(=O)O)cc2ccccc21` is 212 to 213 °C. On to `CS(=O)(=O)Nc1cc(F)ccc1C(=O)O`, for which the melting point lay in the range of 205 to 207 °C. In the case of `S=C=Nc1cccnc1Cl` it was 35 to 37 °C. For the compound `Cc1ccc(Cl)c(S(=O)(=O)Cl)c1`, the melting point lay within 49 to 51 °C. The figure for `Cc1nc(Cl)sc1C(=O)O` is 149 to 151 °C; for `COc1cc(N)c(C(=O)O)c(OC)c1` it is 106 to 108 °C; for `CN(C(=O)c1ccccc1O)C1CCCC1` it is 65 to 74 °C. In the case of `CCCn1cc(C(=O)O)c2ccccc21` it was 155 to 157 °C. In the case of `CC(C)CC(N)C(=O)Nc1nccs1` (stereo not drawn) it was 99 to 101 °C; in that of `CCc1cccc(C)c1NC(=O)CCl`, 100 to 110 °C. `Oc1cccc(-c2nnco2)c1`: the melting point was 211 to 213 °C. In turn, `Cc1cc(OCC(N)=O)ccc1N` displayed a melting point of 137 to 139 °C. The figure for `CCN(Cc1ccc2c(c1)OCCO2)C(=O)CCl` is 213 to 215 °C; for `c1cnc2[nH]cc(C3CCNCC3)c2c1` it is 159 to 161 °C; for `N#CC(N)Cc1ccccc1` (stereo not drawn) it is 39 to 41 °C. The figure for `Cc1cc(-c2cc(C(=O)O)c3c(C)noc3n2)c(C)o1` is 266 to 268 °C; for `O=C(c1ccc[nH]1)N1CCCNCC1` it is 143 to 145 °C; for `N#Cc1ccccc1Sc1ccccc1C(=O)O` it is 213 to 216 °C. In turn, `O=C(O)c1cc(=O)[nH]c2cc(F)ccc12` came in with a melting point of 323 to 325 °C. The figure for `Cc1cc(C)c2c(=O)[nH]sc2n1` is 195 to 197 °C; for `COCc1nnc(-c2cccc(C(=O)O)c2)o1` it is 139 to 141 °C. In turn, `COc1ccc2c(c1)OCC2=O` showed a melting point of 119 to 121 °C. The figure for `O=Cc1c(Cl)cccc1N1CCCC1` is 69 to 71 °C; for `Nc1ccc(Cn2cnc3ccccc32)cc1` it is 177 to 179 °C. The figure for `CCCCc1ccc(NS(=O)(=O)c2ccc(N)cc2OC)cc1` is 170 to 172 °C. The figure for `Cc1noc2nc(-c3ccccc3Cl)cc(C(=O)O)c12` is 248 to 250 °C; for `O=[N+]([O-])c1cc(S(=O)(=O)Cl)c(F)cc1F` it is 46 to 48 °C; for `O=C(O)C=CC1CCC=CO1` (stereo not drawn) it is 81 to 83 °C. As for `O=[N+]([O-])c1cnccc1S`, the melting point was in the range of 109 to 111 °C. The compound `O=C(O)CSc1nc2ccccc2s1` displayed a melting point of 159 to 161 °C. In the case of `O=C(O)C1CSC(c2ccc(Cl)s2)N1` (stereo not drawn) it was 149 to 151 °C; in that of `Cc1csc2ccc(C#N)cc12`, 97 to 99 °C; in that of `NS(=O)(=O)CCS(=O)(=O)c1ccc(F)cc1`, 173 to 175 °C. In the case of `CC(C)(C)OC(=O)Nc1cccc(C#N)c1` it was 127 to 129 °C. `CN1C(=O)Cc2cc(S)ccc21`: the melting point fell in the range of 104 to 106 °C. The figure for `O=C(NCc1cccnc1)OCC(F)(F)F` is 45 to 47 °C. In turn, `O=C(O)c1ccccc1C(=O)c1ccc(Cl)c(Cl)c1` had a melting point of 187 to 189 °C. Take `CCOC(=O)c1sc(-c2ccc(F)c(F)c2)nc1C`: the melting point lay in the range of 81 to 83 °C. The figure for `Nc1ccc(N2CCOCC2)c(S(=O)(=O)Nc2ccc(Cl)cc2)c1` is 236 to 238 °C. The figure for `O=[N+]([O-])c1ccc(N2CCOCC2)nc1` is 143 to 145 °C; for `CNCCCOc1ccc(S(C)(=O)=O)cc1` it is 43 to 45 °C. `O=C(O)C1CCN(c2nc3ccccc3o2)CC1` registered a melting point of 147 to 149 °C. The figure for `CN(C)C(=O)c1csc(C(=O)CCl)c1` is 142 to 144 °C; for `CCc1cc(N)c2ccccc2n1` it is 152 to 154 °C; for `CCOc1ccc(Nc2ncccc2C(=O)O)cc1` it is 189 to 191 °C. The compound `Cc1cc(C(C#N)c2ccc(Cl)cc2)c(Cl)cc1N` (stereo not drawn) displayed a melting point of 147 to 153 °C. In turn, `CC(C(=O)O)S(=O)(=O)c1ccc(F)cc1` (stereo not drawn) came in with a melting point of 117 to 119 °C. The figure for `CCCc1nnc(S)n1CC(=O)O` is 226 to 228 °C; for `O=C(O)CCc1ccccn1` it is 134 to 136 °C; for `COCCCn1cc(C(=O)c2cc(F)ccc2O)cc(C#N)c1=O` it is 126 to 128 °C. `CCC(C)C(=O)NN` (stereo not drawn): the melting point lay in the range of 88 to 90 °C. In the case of `CC(C)(C)c1cc(N)n(CCO)n1` it was 102 to 104 °C. Take `O=C(O)c1cnn(-c2ccccc2)c1`: the melting point fell in the range of 175 to 182 °C.

In the case of `COc1ccc(C2=CCNCC2)cc1`, the melting point is 73 to 75 °C. In the case of `OCc1cnn(-c2ccccc2)c1` it was 63 to 67 °C; in that of `CCCc1noc2ncc(C(=O)O)cc12`, 174 to 176 °C. `CC1CN(S(=O)(=O)CCN)CC(C)O1` (stereo not drawn): the melting point lay in the range of 73 to 75 °C. The figure for `CCOc1ccccc1-c1csc(N)n1` is 209 to 211 °C; for `Cc1noc(C)c1C(C)C(=O)O` (stereo not drawn) it is 101 to 103 °C; for `CCOc1ccc(Oc2ccccc2N)cc1` it is 158 to 160 °C. Turning to `C=CCNC(=O)CN1CCNCC1`, the melting point lay in the range of 63 to 65 °C. In turn, `COC(=O)c1cc(C)nc2nc(S)[nH]c(=O)c12` gave a melting point of 259 to 261 °C. In the case of `NC(CN1CCCCCC1)=NO` it was 124 to 126 °C. The figure for `COc1nc(Cl)nc(N2CCCCCC2)n1` is 114 to 116 °C; for `Cc1ccc(-c2nc(C)c(C(=O)O)s2)o1` it is 215 to 217 °C; for `CC(=O)c1cncnc1` it is 63 to 65 °C. The figure for `O=Cc1cc(Cl)ccc1OCc1cccnc1` is 79 to 81 °C; for `NS(=O)(=O)c1ccc2c(c1)NCC2` it is 164 to 166 °C.

As for `Clc1ccc(NCCc2ccccc2)nn1`, the melting point was 159 to 161 °C. In the case of `CC(C)(C)c1nn(-c2ccccc2)c(Cl)c1C=O` it was 34 to 36 °C; in that of `NCC(O)Cc1ccccc1` (stereo not drawn), 67 to 69 °C. In the case of `Cc1cc(F)ccc1-c1ccc(C(=O)O)cc1F` it was 189 to 191 °C. With `O=C(O)CNC(=O)CNC(=O)c1ccco1`, the melting point lay within 208 to 210 °C. The figure for `O=c1[nH]c2ccccc2cc1CCl` is 199 to 201 °C; for `COC(=O)c1c(S)nc2ccccc2c1O` it is 179 to 181 °C. The figure for `CCCCCCCC(=O)NCC(=O)O` is 104 to 106 °C. The figure for `Cc1c(C(=O)O)cnn1CCOC1CCCCO1` (stereo not drawn) is 139 to 141 °C.

A word on the melting point: it is the temperature, or range, at which the solid turns liquid.

For the origin of these results see a melting point compilation (Tetko et al.).
